“And” between values parts separate entries of the source, which are not always exact repeats. Equal values may be shown once.
How the values were obtained:
Type in all cases: cell-based, Escherichia coli
E. coli ATCC 43888 = assay: Reaction mixture streak plate, visual observation; details: room temperature
Description: The tests were performed at room temperature.

[1] = test system: E. coli ATCC 43888 (O157:H7); assay: Log kill in aqueous bacterial suspension, plating on TSA; details: 73 deg. F.
E. coli ATCC 12435 = assay: Log kill / surviving titer in aqueous bacterial suspension, plating on TSA; details: for cfu per ml: no lactic acid (0.00 control 3.41E+07)
Description: The “reaction” (i.e. interaction of antimicrobial agent and the target organism) was initiated by the addition of bacteria to the antimicrobial solution. The reaction was allowed to proceed for the respective time periods listed in Table I (i.e., at least 15 seconds each) and was terminated at the end of that time by adding quench buffer comprising 3.2 M potassium phosphate buffer, pH 7.2. The sample then was evaluated using serial 10-fold dilutions into sterile phosphate buffer as needed to determine, on Tryptic Soy agar (“TSA”), the titer of surviving bacteria. TSA is a medium that allows the growth of most bacteria.
The reduction in the bacterial count is expressed as the “log kill” which is defined as log10 [initial cfu/ml]−log10 [remaining cfu/ml]; where “cfu” refers to “colony forming unit.” All log kills reported herein are positive “base 10.”). Inasmuch as the standard assay mixture contained only ca. 25×10^6 cfu initially (equivalent to 7.398 log) the theoretical maximum kill that can be measured with this assay system is ca. 7.4 log and the practical measuring limit is ca. 6 log. Therefore, high levels of log reduction were monitored by plating reaction mixtures directly (without dilution) onto agar medium. The results are reported in Table I and illustrated in graph format in FIG. 1. […] The tests were replicated with E. coli ATCC 43888, a pathogenic strain of E. coli O157:H7. […]
After incubation for 15 seconds at ambient temperature the reaction was quenched by addition of phosphate buffer and the titer of surviving bacteria was determined by plating on TSA as described in the previous examples. […] The amphoteric and zwitterionic surfactants, which carry a net positive charge under the conditions of the reaction mixture, caused enhancement of the log kill by lactic acid. All anionic surfactants tested caused substantial enhancement of the log kill by lactic acid.

E. coli SAC-2 = assay: as above; details: for Log Kill […] Lactic Acid: 75 degrees F.; for Log Kill: sulfate; for cfu per ml: 75 deg. F. (0.00 control 4.18E+07)
Description: In each instance a target sample was employed using approximately 50 micro liters of an SAC-2 culture. E. coli “SAC-2,” was a Gram-negative strain isolated from municipal sewage. The tests were performed at room temperature, i.e., 75 deg. F. […] The results of each test sample were evaluated using a series of 10-fold dilutions as needed to determine, on a standard plating agar (TSA), the titer of bacteria that survived the antimicrobial treatment.
The same procedure was employed as in Example 2, but the only agent added to the target solution was Niaproof 08. No lactic acid was employed.
The mixture was then diluted and plated as previously described.
Increasing amounts of reagent were added to a series of test tubes. […] The bacterial titer of each mixture was determined by preparation and plating of serial dilutions on TSA.
[…] […] The amphoteric and zwitterionic surfactants, which carry a net positive charge under the conditions of the reaction mixture, caused enhancement of the log kill by lactic acid. All anionic surfactants tested caused substantial enhancement of the log kill by lactic acid.

[2] = Niaproof 08 0.02 wt./wt. % in 2.5 wt. % lactic acid
[3] = Niaproof 08 0.04 wt./wt. % in 2.5 wt. % lactic acid
[4] = Niaproof 08 0.06 wt./wt. % in 2.5 wt. % lactic acid
[5] = Niaproof 08 0.10 wt./wt. % in 2.5 wt. % lactic acid

Question: Which Description/Observation (E. coli ATCC 43888; Niaproof 08 0.02 % wt./wt. in 2.5 wt. % lactic acid) does the source give for CCCCC(CC)COS(=O)(=O)[O-].[Na+] (centres unmarked) [Niaproof 08, sodium 2-ethylhexyl sulfate] here?
Answer: The Description/Observation was “Extensive bacterial growth”.

Question: What about the Description/Observation (E. coli ATCC 43888; Niaproof 08 0.04 % wt./wt. in 2.5 wt. % lactic acid) of the same compound?
Answer: Its Description/Observation is “No bacterial growth”.

Question: And the Description/Observation (E. coli ATCC 43888; Niaproof 08 0.06 % wt./wt. in 2.5 wt. % lactic acid)?
Answer: Its Description/Observation is “No bacterial growth”.

Question: What about the Description/Observation (E. coli ATCC 43888; Niaproof 08 0.08 % wt./wt. in 2.5 wt. % lactic acid) of the same compound?
Answer: Its Description/Observation is “No bacterial growth”.

Question: And the Description/Observation (E. coli ATCC 43888; Niaproof 08 0.10 % wt./wt. in 2.5 wt. % lactic acid)?
Answer: Its Description/Observation is “No bacterial growth”.

Question: What about the “concentration of surfactant at which all bacteria added were killed” value (E. coli ATCC 43888; in 2.5 wt. % lactic acid) of the same compound?
Answer: Its value is at least 0.04%.

Question: And the “+Niaproof 08 (Log Kill)” value ([1]; 2.5% lactic acid + Niaproof 08, pH 2.19, 20 secs.)?
Answer: The value was 5.75 log.

Question: And the “+Niaproof 08 (Log Kill)” value ([1]; 2.5% lactic acid + Niaproof 08, pH 2.42, 20 secs.)?
Answer: The value was 3.17 log.

Question: What about the “+Niaproof 08 (Log Kill)” value ([1]; 2.5% lactic acid + Niaproof 08, pH 2.59, 20 secs.) of the same compound?
Answer: Its value is 3.81 log.

Question: And the “+Niaproof 08 (Log Kill)” value ([1]; 2.5% lactic acid + Niaproof 08, pH 2.74, 20 secs.)?
Answer: Its value is 4.94 log.

Question: What about the “+Niaproof 08 (Log Kill)” value ([1]; 2.5% lactic acid + Niaproof 08, pH 2.86, 20 secs.) of the same compound?
Answer: The value was 5.01 log.

Question: What about the “+Niaproof 08 (Log Kill)” value ([1]; 2.5% lactic acid + Niaproof 08, pH 3.24, 20 secs.) of the same compound?
Answer: Its value is 0 log.

Question: And the “+Niaproof 08 (Log Kill)” value ([1]; 2.5% lactic acid + Niaproof 08, pH 3.67, 20 secs.)?
Answer: Its value is 0 log.

Question: And the “Log Kill (Lactic Acid + Surfactant)” value (E. coli ATCC 12435; 0.1% Niaproof 08 in 2.5% lactic acid, 15 seconds, 83 degrees F.)?
Answer: Its value is 6.54 log.

Question: And the “Enhancement Factor” value (E. coli ATCC 12435; [2])?
Answer: The value was 1.52.

Question: What about the “Log Kill” value (E. coli ATCC 12435; [2]) of the same compound?
Answer: The value was 3.469 log.

Question: What about the “Enhancement Factor” value (E. coli ATCC 12435; [3]) of the same compound?
Answer: Its value is 1.43.

Question: And the “Log Kill” value (E. coli ATCC 12435; [3])?
Answer: The value was 3.259 log.

Question: And the “Enhancement Factor” value (E. coli ATCC 12435; [4])?
Answer: The value was 2.79.

Question: And the “Log Kill” value (E. coli ATCC 12435; [4])?
Answer: Its value is 6.367 log.

Question: What about the “Enhancement Factor” value (E. coli ATCC 12435; [5]) of the same compound?
Answer: The value was 2.86.

Question: What about the “Log Kill” value (E. coli ATCC 12435; [5]) of the same compound?
Answer: The value was 6.539 log.

Question: What about the cfu per ml (E. coli ATCC 12435; Niaproof 08 alone 0.02 % wt./wt.) of the same compound?
Answer: The cfu per ml was 3.41E+07 cfu per ml.

Question: What about the cfu per ml (E. coli ATCC 12435; Niaproof 08 alone 0.06 % wt./wt.) of the same compound?
Answer: Its cfu per ml is 3.43E+07 cfu per ml.

Question: And the cfu per ml (E. coli ATCC 12435; Niaproof 08 alone 0.14 % wt./wt.)?
Answer: The cfu per ml was 3.56E+07 cfu per ml.

Question: And the cfu per ml (E. coli ATCC 12435; Niaproof 08 alone 0.20 % wt./wt.)?
Answer: Its cfu per ml is 3.04E+07 cfu per ml.

Question: What about the “Log Kill […] Lactic Acid” value (E. coli SAC-2; Niaproof 08 0.02 % wt./wt. in […] lactic acid, 15 seconds) of the same compound?
Answer: The value was 0.575 log.

Question: What about the “Enhancement Factor (log10 kill with lactic acid and surfactant divided by log10 kill with lactic acid only)” value (E. coli SAC-2; [2]) of the same compound?
Answer: The value was 2.37.

Question: And the “Log Kill” value (E. coli SAC-2; Niaproof 08 0.02 wt./wt. % in 2.5 wt. % lactic acid, 15 seconds, room temperature)?
Answer: The value was 1.08 log and 1.080 log.

Question: What about the “Log Kill […] Lactic Acid” value (E. coli SAC-2; Niaproof 08 0.04 % wt./wt. in […] lactic acid, 15 seconds) of the same compound?
Answer: The value was 1.060 log.

Question: And the “Enhancement Factor (log10 kill with lactic acid and surfactant divided by log10 kill with lactic acid only)” value (E. coli SAC-2; [3])?
Answer: The value was 3.82.

Question: What about the “Log Kill” value (E. coli SAC-2; Niaproof 08 0.04 wt./wt. % in 2.5 wt. % lactic acid, 15 seconds, room temperature) of the same compound?
Answer: Its value is 1.74 log and 1.740 log.

Question: And the “Log Kill […] Lactic Acid” value (E. coli SAC-2; Niaproof 08 0.06 % wt./wt. in […] lactic acid, 15 seconds)?
Answer: Its value is 1.011 log.

Question: What about the “Log Kill […] Lactic Acid” value (E. coli SAC-2; Niaproof 08 0.08 % wt./wt. in […] lactic acid, 15 seconds) of the same compound?
Answer: Its value is 2.110 log.

Question: And the “Enhancement Factor (log10 kill with lactic acid and surfactant divided by log10 kill with lactic acid only)” value (E. coli SAC-2; Niaproof 08 0.08 wt./wt. % in 2.5 wt. % lactic acid)?
Answer: Its value is 10.5.

Question: And the “Log Kill” value (E. coli SAC-2; Niaproof 08 0.08 wt./wt. % in 2.5 wt. % lactic acid, 15 seconds, room temperature)?
Answer: The value was 4.8 log and 4.800 log.

Question: What about the “Log Kill […] Lactic Acid” value (E. coli SAC-2; Niaproof 08 0.10 % wt./wt. in […] lactic acid, 15 seconds) of the same compound?
Answer: The value was 2.770 log.

Question: What about the “Log Kill […] Lactic Acid” value (E. coli SAC-2; Niaproof 08 0.12 % wt./wt. in […] lactic acid, 15 seconds) of the same compound?
Answer: Its value is 2.820 log.

Question: And the “Enhancement Factor (log10 kill with lactic acid and surfactant divided by log10 kill with lactic acid only)” value (E. coli SAC-2; Niaproof 08 0.12 wt./wt. % in 2.5 wt. % lactic acid)?
Answer: Its value is 13.4.

Question: And the “Log Kill” value (E. coli SAC-2; Niaproof 08 0.12 wt./wt. % in 2.5 wt. % lactic acid, 15 seconds, room temperature)?
Answer: The value was 6.1 log and 6.100 log.

Question: And the “Enhancement Factor (log10 kill with lactic acid and surfactant divided by log10 kill with lactic acid only)” value (E. coli SAC-2; Niaproof 08 0.16 wt./wt. % in 2.5 wt. % lactic acid)?
Answer: Its value is 13.4.

Question: And the “Log Kill” value (E. coli SAC-2; Niaproof 08 0.16 wt./wt. % in 2.5 wt. % lactic acid, 15 seconds, room temperature)?
Answer: Its value is 6.1 log and 6.100 log.

Question: And the “Log Kill […] Lactic Acid” value (E. coli SAC-2; Niaproof 08 0.20 % wt./wt. in […] lactic acid, 15 seconds)?
Answer: Its value is 5.980 log.

Question: And the “Enhancement Factor (log10 kill with lactic acid and surfactant divided by log10 kill with lactic acid only)” value (E. coli SAC-2; Niaproof 08 0.20 wt./wt. % in 2.5 wt. % lactic acid)?
Answer: The value was 13.4.

Question: What about the “Log Kill” value (E. coli SAC-2; Niaproof 08 0.20 wt./wt. % in 2.5 wt. % lactic acid, 15 seconds, room temperature) of the same compound?
Answer: The value was ~6 log and 6.1 log and 6.100 log.

Question: And the “Log Kill […] Lactic Acid” value (E. coli SAC-2; Niaproof 08 […] wt./wt. in […] lactic acid, 15 seconds)?
Answer: Its value is 5.980 log.

Question: What about the “elimination of detectable E. coli” value (E. coli SAC-2; Niaproof 08 above about 0.2 wt./wt. % in 2.5 wt. % lactic acid, 15 seconds, room temperature) of the same compound?
Answer: The value was “complete elimination of detectable E. coli”.

Question: And the cfu per ml (E. coli SAC-2; Niaproof 08 alone 0.02 % wt./wt., no lactic acid, 15 seconds)?
Answer: The cfu per ml was 4.05E+07 cfu per ml.

Question: What about the cfu per ml (E. coli SAC-2; Niaproof 08 alone 0.06 % wt./wt., no lactic acid, 15 seconds) of the same compound?
Answer: Its cfu per ml is 3.63E+07 cfu per ml.

Question: And the cfu per ml (E. coli SAC-2; Niaproof 08 alone 0.14 % wt./wt., no lactic acid, 15 seconds)?
Answer: The cfu per ml was 4.25E+07 cfu per ml.

Question: What about the cfu per ml (E. coli SAC-2; Niaproof 08 alone 0.20 % wt./wt., no lactic acid, 15 seconds) of the same compound?
Answer: Its cfu per ml is 4.15E+07 cfu per ml.

Question: What about the “antimicrobial effect of Niaproof 08 by itself” value (E. coli SAC-2; no lactic acid, up to 0.20 % wt./wt., 15 seconds) of the same compound?
Answer: Its value is “no antimicrobial effect”.

Question: And the “Log Kill (Lactic Acid + Surfactant)” value (E. coli SAC-2; surfactant 0.2% in 2.5% lactic acid, 15 seconds, 74 to 80 degrees F.)?
Answer: Its value is 4.08 log.
